From patent publication US7626042B2, “O-substituted hydroxyaryl derivatives” (Institute of Medicinal Molecular Design, Inc., priority 2002, dated 2009)

Test system: NF-κB activation
Assay: Inhibitory activity against NF-κB activation, luciferase reporter assay under TNF-α stimulation
Format: cell-based, human
Details: HepG2 cells, TNF-α 40 ng/ml, 4 hours
Protocol: Inhibitory activity against NF-κB activation was measured by referring to the method of Hill et al. (Cell, (USA), in 1993, Vol. 73, No. 2, p. 395-406). Using a transfection reagent(Effectene; QIAGEN), the human hepatoma cell strain HepG2 was transfected with a plasmid (pNFκ Luc Reporter Plasmid; STRATAGENE) integrated with an oligonucleotide having five tandem copies of NF-κB binding sequences(TGGGGACTTTCCGC) on a upstream region of firefly luciferase gene (Luc) according to the QIAGEN's protocol, and the cells were incubated for 6 to 24 hours. Then the cells were cultured for 4 hours after the addition of TNF-α (40 ng/ml) in the presence of a test compound, and intracellular luciferase activity was measured by using PicaGene LT (TOYO INK MFG Co., Ltd.) and a chemical luminescence measurement apparatus(SPECTRAFluor Plus; TECAN). The inhibitory ratio was measured as a ratio relative to a value of the luciferase activity in the absence of the test compound.

SMILES | inhibition at 1 µg/mL (Homo sapiens, Drug Concentration 1 μg/mL, read-out: Inhibitory Ratio of NF-κ B Activation(%)) [%] | inhibition at 10 µg/mL (Homo sapiens, Drug Concentration 10 μg/mL, read-out: Inhibitory Ratio of NF-κ B Activation(%)) [%] | Inhibitory Ratio of NF-κ B Activation(%) (Drug Concentration 1 μg/mL) | Inhibitory Ratio of NF-κ B Activation(%) (Drug Concentration 10 μg/mL)
CC(C)(C)C(=O)Oc1ccc(Cl)cc1C(=O)Nc1cc(C(F)(F)F)cc(C(F)(F)F)c1 [Compound 1, 5-Chloro-2-pivaloyloxy-N-[3,5-bis(trifluoromethyl)phenyl]benzamide] | 94.9 | 95.8 | – | –
CCCCC(=O)Oc1ccc(Cl)cc1C(=O)Nc1cc(C(F)(F)F)cc(C(F)(F)F)c1 [Compound 2] | – | – | 97.9 | 98.6
CCCCCCCCCC(=O)Oc1ccc(Cl)cc1C(=O)Nc1cc(C(F)(F)F)cc(C(F)(F)F)c1 [Compound 3] | – | – | 96.1 | 98.4
O=C(Oc1ccc(Cl)cc1C(=O)Nc1cc(C(F)(F)F)cc(C(F)(F)F)c1)c1ccccc1 [Compound 4] | – | – | 94.2 | 97.5
CC(=O)Oc1ccccc1C(=O)Oc1ccc(Cl)cc1C(=O)Nc1cc(C(F)(F)F)cc(C(F)(F)F)c1 [Compound 5] | – | – | 96.1 | 98.0
O=C(Oc1ccc(Cl)cc1C(=O)Nc1cc(C(F)(F)F)cc(C(F)(F)F)c1)c1cccnc1 [Compound 6] | – | – | 94.4 | 98.1
O=C(Oc1ccc(Cl)cc1C(=O)Nc1cc(C(F)(F)F)cc(C(F)(F)F)c1)c1ccncc1 [Compound 7] | – | – | 93.9 | 98.8
O=C(Cc1ccccc1)Oc1ccc(Cl)cc1C(=O)Nc1cc(C(F)(F)F)cc(C(F)(F)F)c1 [Compound 8] | – | – | 95.0 | 97.9
O=C(Cc1ccc2c(c1)OCO2)Oc1ccc(Cl)cc1C(=O)Nc1cc(C(F)(F)F)cc(C(F)(F)F)c1 [Compound 9] | – | – | 94.6 | 97.3
COCC(=O)Oc1ccc(Cl)cc1C(=O)Nc1cc(C(F)(F)F)cc(C(F)(F)F)c1 [Compound 10] | – | – | 95.3 | 97.4
CC(=O)OCC(=O)Oc1ccc(Cl)cc1C(=O)Nc1cc(C(F)(F)F)cc(C(F)(F)F)c1 [Compound 11] | – | – | 97.3 | 99.2
O=C(COc1ccccc1)Oc1ccc(Cl)cc1C(=O)Nc1cc(C(F)(F)F)cc(C(F)(F)F)c1 [Compound 12] | – | – | 95.5 | 97.5
O=C(COc1ccc(Cl)cc1)Oc1ccc(Cl)cc1C(=O)Nc1cc(C(F)(F)F)cc(C(F)(F)F)c1 [Compound 13] | – | – | 96.6 | 98.7
O=C(COc1cccc(Cl)c1Cl)Oc1ccc(Cl)cc1C(=O)Nc1cc(C(F)(F)F)cc(C(F)(F)F)c1 [Compound 14] | – | – | 98.9 | 99.4
CC(Oc1ccccc1)C(=O)Oc1ccc(Cl)cc1C(=O)Nc1cc(C(F)(F)F)cc(C(F)(F)F)c1 (centres unmarked) [Compound 15] | – | – | 97.9 | 99.1
CC(C)(Oc1ccc(Cl)cc1)C(=O)Oc1ccc(Cl)cc1C(=O)Nc1cc(C(F)(F)F)cc(C(F)(F)F)c1 [Compound 16] | – | – | 96.6 | 98.4
CC(C)(C)OC(=O)CC(=O)Oc1ccc(Cl)cc1C(=O)Nc1cc(C(F)(F)F)cc(C(F)(F)F)c1 [Compound 17] | – | – | 97.0 | 96.8
O=C(CCC(=O)Oc1ccc(Cl)cc1C(=O)Nc1cc(C(F)(F)F)cc(C(F)(F)F)c1)OCc1ccccc1 [Compound 18] | – | – | 95.4 | 98.1
O=C(CCC(=O)N1CCCCC1)Oc1ccc(Cl)cc1C(=O)Nc1cc(C(F)(F)F)cc(C(F)(F)F)c1 [Compound 19] | – | – | 97.9 | 98.8
